Results: US7994187B2, “HIV inhibiting 3,4-dihydro-imidazo[4,5-B]pyridin-5-ones” (Tibotec Pharmaceuticals Ltd., priority 2006, dated 2011)

Tests used:
[1] = Cytotoxicity in mock-infected MT4 CMV-EGFP cells (GFP fluorescence); type: cell-based; settings: human, 50% cytotoxic concentration as negative log
Excerpt: Analogously, MT4 cells are engineered with GFP and the constitutional cytomegalovirus (CMV) promotor. This cell line is designated MT4 CMV-EGFP, and can be used for the in vitro evaluation of cytotoxicity of investigational compounds. In this cell line, GFP levels are comparably to those of infected MT4 LTR-EGFP cells. Cytotoxic investigational compounds reduce GFP levels of mock-infected MT4 CMV-EGFP cells.
(§1) Effective concentration values such as 50% effective concentration (EC50) can be determined and are usually expressed in μM. An EC50 value is defined as the concentration of test compound that reduces the fluorescence of HIV-infected cells by 50%. The 50% cytotoxic concentration (CC50 in μM) is defined as the concentration of test compound that reduces fluorescence of the mock-infected cells by 50%. The ratio of CC50 to EC50 is defined as the selectivity index (SI) and is an indication of the selectivity of the anti-HIV activity of the inhibitor. The ultimate monitoring of HIV-1 infection and cytotoxicity is done using a scanning microscope. Image analysis allows very sensitive detection of viral infection. Measurements are done before cell necrosis, which usually takes place about five days after infection, in particular measurements are performed three days after infection.

[2] = tested on: wild-type HIV-IIIB strain; assay: Anti-viral activity in cellular assay, MT4 LTR-EGFP cells (GFP fluorescence); type: cell-based, HIV-1; settings: Human immunodeficiency virus 1, 72 h, pEC50 = -log10(EC50), measured three days after infection
Description: The compounds of the present invention were tested for anti-viral activity in a cellular assay, which was performed according to the following procedure.
The human T-cell line MT4 is engineered with Green Fluorescent Protein (GFP) and an HIV-specific promoter, HIV-1 long terminal repeat (LTR). This cell line is designated MT4 LTR-EGFP, and can be used for the in vitro evaluation of anti-HIV activity of investigational compounds. In HIV-1 infected cells, the Tat protein is produced which upregulates the LTR promotor and finally leads to stimulation of the GFP reporter production, allowing to measure ongoing HIV-infection fluorometrically.
as §1
The following Table 6 lists pEC50 values against wild-type HIV-IIIB strain as well as pEC50 values for a selected number of compounds of the invention. A pEC50 value corresponds to −log10(EC50). Listed are compounds having a pEC50 value of at least 5.00.

Structure (SMILES) | CC50 at 3 days [1] [µM] | EC50 [2] [µM]
O=c1c2ccccc2c2nc3sccn3c2n1-c1ccc([N+](=O)[O-])cc1 [Compound 98, 6-(4-nitrophenyl)-thiazolo[2′,3′:2,3]imidazo[4,5-c]isoquinolin-5(6H)-one] | > 32.4 | 0.977
O=c1c2ccccc2c2nc3ccc(NCCN4CCCC4)cn3c2n1-c1ccc([N+](=O)[O-])cc1 [Compound 67, 6-(4-nitrophenyl)-9-(2-pyrrolidin-1-yl-ethylamino)-pyrido[2′,1′:2,3]imidazo[4,5-c]isoquinolin-5(6H)-one] | 2.63 | 0.339
O=c1c2ccccc2c2nc3ccc(OP(=O)(O)O)cn3c2n1-c1ccc([N+](=O)[O-])cc1 [Compound 76, phosphoric acid 5,6-dihydro-6-(4-nitrophenyl)-5-oxo-pyrido[2′,1′:2,3]imidazo[4,5-c]isoquinolin-9-yl ester] | > 32.4 | 0.0741
CCNCCNc1ccc2nc3c4ccccc4c(=O)n(-c4ccc([N+](=O)[O-])cc4)c3n2n1 [Compound 128] | 0.851 | 0.0309
O=c1c2ccccc2c2nc3ccc(OCCO)cn3c2n1-c1ccc([N+](=O)[O-])cc1 [Compound 74, 9-[2-hydroxy-ethoxy]-6-(4-nitrophenyl)-pyrido[2′,1′:2,3]imidazo[4,5-c]isoquinolin-5(6H)-one] | > 32.4 | 0.871
Cc1cccc2c(=O)n(-c3ccc([N+](=O)[O-])cc3)c3c(nc4ccc(O)cn43)c12 [Compound 110, 9-hydroxy-1-methyl-6-(4-nitrophenyl)-pyrido[2′,1′:2,3]imidazo[4,5-c]isoquinolin-5(6H)-one] | 5.37 | 0.0537
O=c1c2ccccc2c2nc3ccc(NCCO)nn3c2n1-c1ccc([N+](=O)[O-])cc1 [Compound 121, 9-[(2-hydroxyethyl)amino]-6-(4-nitrophenyl)-pyridazo[3′,2′:2,3]imidazo[4,5-c]isoquinolin-5(6H)-one] | 14.8 | 0.275
O=CNc1ccc2nc3c4ccccc4c(=O)n(-c4ccc([N+](=O)[O-])cc4)c3n2c1 [Compound 70] | > 32.4 | 0.603
O=c1c2sccc2c2nc3ccccn3c2n1-c1ccc([N+](=O)[O-])cc1 [Compound 103, 5-(4-nitrophenyl)-pyrido[2′,1′:2,3]imidazo[4,5-b]thieno[3,2-d]pyridin-4(5H)-one] | > 32.4 | 1
CN(C)CCCOc1ccc2nc3c4ccccc4c(=O)n(-c4ccc([N+](=O)[O-])cc4)c3n2c1 [Compound 82] | 8.91 | 1.12
O=c1c2cc(Br)ccc2c2nc3ccccn3c2n1-c1ccc([N+](=O)[O-])cc1 [Compound 101, 3-bromo-6-(4-nitrophenyl)-pyrido[2′,1′:2,3]imidazo[4,5-c]isoquinolin-5(6H)-one] | > 100 | 2.19
CN(C)CCN(C)c1ccc2nc3c4ccccc4c(=O)n(-c4ccc([N+](=O)[O-])cc4)c3n2c1 [Compound 68] | 16.6 | 1.23
O=c1c2ccccc2c2nc3ccc(NCCCO)nn3c2n1-c1ccc([N+](=O)[O-])cc1 [Compound 118] | > 32.4 | 0.646
Cc1ccc(-n2c(=O)c3ccccc3c3nc4ccccn4c32)cc1[N+](=O)[O-] [Compound 22] | > 32.4 | 2.88
CN(C)CCCNc1ccc2nc3c4ccccc4c(=O)n(-c4ccc([N+](=O)[O-])cc4)c3n2n1 [Compound 120] | 1.32 | 0.631
O=c1c2ccccc2c2nc3ccc(NCc4ccccc4)nn3c2n1-c1ccc([N+](=O)[O-])cc1 [Compound 125] | > 20 | 5.25
O=C(Nc1ccc2nc3c4ccccc4c(=O)n(-c4ccc([N+](=O)[O-])cc4)c3n2c1)C(F)(F)F [Compound 90] | > 32.4 | 0.398
O=c1c2ccccc2c2nc3ccc(OCCN4CCCC4)cn3c2n1-c1ccc([N+](=O)[O-])cc1 [Compound 78] | > 32.4 | 3.02

Structure (SMILES) | CC50 at 3 days [1] [µM] | EC50 [2] [µM]
CNc1ccc2nc3c4ccccc4c(=O)n(-c4ccc([N+](=O)[O-])cc4)c3n2n1 [Compound 114] | > 32.4 | 0.245
O=c1c2ccccc2c2nc3ccc(NCCNCCO)nn3c2n1-c1ccc([N+](=O)[O-])cc1 [Compound 130] | 3.55 | 0.219
O=c1c2ccccc2c2nc3ccc(O)cn3c2n1-c1ccc([N+](=O)[O-])cc1 [Compound 10, 9-hydroxy-6-(4-nitrophenyl)-pyrido[2′,1′:2,3]imidazo[4,5-c]isoquinolin-5(6H)-one] | > 32.4 | 0.155
CN(C)CCOc1ccc2nc3c4ccccc4c(=O)n(-c4ccc([N+](=O)[O-])cc4)c3n2c1 [Compound 81] | 13.5 | 3.16
CCc1ccc(-n2c(=O)c3ccccc3c3nc4ccccn4c32)cn1 [Compound 27, 6-(6-ethyl-pyridin-3-yl)-pyrido[2′,1′:2,3]imidazo[4,5-c]-isoquinolin-5(6H)-one] | 26.3 | 5.75
Nc1ccc2nc3c4ccccc4c(=O)n(-c4ccc(Cl)nc4)c3n2c1 [Compound 53, 9-amino-6-(6-chloro-pyridin-3-yl)-pyrido[2′,1′:2,3]imidazo-[4,5-c]isoquinolin-5(6H)-one] | 4.57 | 1.66
CN(C)CCNc1ccc2nc3c4ccccc4c(=O)n(-c4ccc([N+](=O)[O-])cc4)c3n2n1 [Compound 122] | 0.0692 | 0.0891
O=c1c2ccccc2c2nc3ccccn3c2n1-c1ccc([N+](=O)[O-])cc1 [Compound 1, 6-(4-nitrophenyl)-pyrido[2′,1′:2,3]imidazo-[4,5-c]isoquinolin-5(6H)-one] | > 32.4 | 0.355
CN(C)/C=N/c1ccc2nc3c4ccccc4c(=O)n(-c4ccc(Cl)nc4)c3n2c1 [Compound 84, 6-(6-chloro-pyridin-3-yl)-9-[[(dimethylamino)-methylene]amino]-pyrido[2′,1′:2,3]imidazo[4,5-c]isoquinolin-5(6H)-one] | 16.6 | 6.17
O=c1c2ccccc2c2nc3ccccn3c2n1-c1ccc(Cl)nc1 [Compound 18] | > 32.4 | 8.13
O=c1c2ccccc2c2nc3ccccn3c2n1-c1ccc(Br)nc1 [Compound 21, 6-(6-bromo-pyridin-3-yl)-pyrido-[2′,1′:2,3]imidazo[4,5-c]isoquinolin-5(6H)-one] | > 32.4 | 4.47
O=c1c2ccccc2c2nc3cc(CO)ccn3c2n1-c1ccc([N+](=O)[O-])cc1 [Compound 9] | > 32.4 | 0.724
Nc1ccc2nc3c4ccccc4c(=O)n(-c4ccc([N+](=O)[O-])cc4)c3n2n1 [Compound 129, 9-amino-6-(4-nitrophenyl)-pyridazo-[3′,2′:2,3]imidazo[4,5-c]isoquinolin-5(6H)-one] | > 32.4 | 0.166
O=C(Nc1ccc2nc3c4ccccc4c(=O)n(-c4ccc(Cl)nc4)c3n2c1)C(F)(F)F [Compound 61, N-[6-(6-chloro-pyridin-3-yl)-5,6-dihydro-5-oxo-pyrido[2′,1′:2,3]imidazo[4,5-c]isoquinolin-9-yl]-2,2,2-trifluoro-acetamide] | > 32.4 | 2.09
O=c1c2ccccc2c2nc3ccc(NCCN4CCCC4)nn3c2n1-c1ccc([N+](=O)[O-])cc1 [Compound 115] | 0.832 | 0.912
Cc1ccc(-n2c(=O)c3ccccc3c3nc4ccccn4c32)cn1 [Compound 19] | > 32.4 | 8.91
O=c1c2ccccc2c2nc3ccc(NCCO)nn3c2n1-c1ccc(Cl)nc1 [Compound 126] | > 32.4 | 2.14
O=c1c2ccccc2c2nc3ccc(OP(=O)(O)O)cn3c2n1-c1ccc(Cl)nc1 [Compound 77] | 25.7 | 1.12
